The test system of the first data set is U-87 MG cells.
Experiment: not given
Also on record: method as in Pu et al., 2020. The note with it: ref Pu et al., 2020; cited from earlier work.
With `COc1cc(O)c2c(c1)/C=C/C[C@H](O)[C@H](O)C(=O)/C=C\C[C@H](C)OC2=O` [5Z-7-Oxozeanol], the CC50 is more than 10 µM.

The test system of another data set is SARS-CoV-2. As to the kind of experiment: microbe, parasite or virus in culture. The class given is cell-based, SARS-CoV-2 BetaCov/Belgium/GHB-03021/2020. Conditions: Severe acute respiratory syndrome coronavirus 2, 96 h, read-out: SARS-CoV-2 EC50.
The term EC50 denotes the concentration giving half of the maximal effect. On to `O=C(c1cccc(-c2cnc3[nH]cc(C#Cc4cccnc4)c3c2)c1)N1CCCC1` [Compound 8L], for which the 50% effective concentration (EC50) came to 0.96 ± 0.32 µM.
On the same count and under the same terms, next, `CCNC(=O)c1ccc(-c2cnc3[nH]cc(C#Cc4cccnc4)c3c2)cc1` [Compound 8b]: 0.58 ± 0.05 µM.
Turning to `CC(C)CNC(=O)c1cccc(-c2cnc3[nH]cc(C#Cc4cccnc4)c3c2)c1` [Compound 8g], the EC50 turned out to be 0.76 ± 0.46 µM.
As to `COCCNC(=O)c1cccc(-c2cnc3[nH]cc(C#Cc4cccnc4)c3c2)c1` [Compound 8h], the EC50 was determined as 2.13 ± 1.91 µM.
For the compound `CCN(CC)C(=O)c1cccc(-c2cnc3[nH]cc(C#Cc4cccnc4)c3c2)c1` [Compound 8k], the EC50 was 10.2 ± 0.14 µM.
Turning to `Cc1cncc(C#Cc2c[nH]c3ncc(-c4cccc(C(=O)NC5CC5)c4)cc23)c1` [Compound 9c], the EC50 worked out at 1.82 ± 0.83 µM.

Tested on in a further data set: not listed separately
Nature of the data set: in vitro. The note with it: human.
Compound `COc1ccc(-c2cnc3[nH]cc(C#Cc4cccnc4)c3c2)cc1OC` [Compound 1] registered a CC50 of more than 10 µM.
Regarding `COc1cc(OC)cc(-c2cnc3[nH]cc(C#Cc4cccnc4)c3c2)c1` [Compound 4d], the CC50 was more than 10 µM.
Still for that read-out and setting: next, `O=C(c1cccc(-c2cnc3[nH]cc(C#Cc4cccnc4)c3c2)c1)N1CCCC1` [Compound 8L]: more than 10 µM; `CCNC(=O)c1ccc(-c2cnc3[nH]cc(C#Cc4cccnc4)c3c2)cc1` [Compound 8b]: more than 10 µM; `CNC(=O)c1cccc(-c2cnc3[nH]cc(C#Cc4cccnc4)c3c2)c1` [Compound 8e]: more than 10 µM.
On to `O=C(NC1CC1)c1cccc(-c2cnc3[nH]cc(C#Cc4cccnc4)c3c2)c1` [Compound 8f], for which the CC50 was more than 10 µM.
For `CC(C)CNC(=O)c1cccc(-c2cnc3[nH]cc(C#Cc4cccnc4)c3c2)c1` [Compound 8g], the CC50 was more than 10 µM.
`COCCNC(=O)c1cccc(-c2cnc3[nH]cc(C#Cc4cccnc4)c3c2)c1` [Compound 8h] had a CC50 of more than 10 µM.
On to `CCN(CC)C(=O)c1cccc(-c2cnc3[nH]cc(C#Cc4cccnc4)c3c2)c1` [Compound 8k], for which the CC50 is more than 10 µM.
Consider `Cc1cncc(C#Cc2c[nH]c3ncc(-c4cccc(C(=O)NC5CC5)c4)cc23)c1` [Compound 9c], for which the CC50 is more than 10 µM.

Another data set addresses adaptor-associated kinase 1 (AAK1).
Experiment: not given
Set-up: method as in Verdonck et al., 2019. Conditions: ref Verdonck et al., 2019; read-out: AAK1 IC50 (enzymatic assay); cited from earlier work.
One may read the IC50 as the concentration at which inhibition is half-maximal. Take `COc1ccc(-c2cnc3[nH]cc(C#Cc4cccnc4)c3c2)cc1OC` [Compound 1]: the IC50 is 0.004 µM.

Tested on in another data set: not listed separately
As to the kind of experiment: in vitro. Conditions: African green monkey.
As to `O=C(c1cccc(-c2cnc3[nH]cc(C#Cc4cccnc4)c3c2)c1)N1CCCC1` [Compound 8L], the CC50 came out at 6.46 ± 1.75 µM.
`CCNC(=O)c1ccc(-c2cnc3[nH]cc(C#Cc4cccnc4)c3c2)cc1` [Compound 8b]: the CC50 is more than 100 µM.
Compound `CC(C)CNC(=O)c1cccc(-c2cnc3[nH]cc(C#Cc4cccnc4)c3c2)c1` [Compound 8g] registered a CC50 of more than 85 µM.
For the compound `COCCNC(=O)c1cccc(-c2cnc3[nH]cc(C#Cc4cccnc4)c3c2)c1` [Compound 8h], the CC50 is more than 100 µM.
Compound `CCN(CC)C(=O)c1cccc(-c2cnc3[nH]cc(C#Cc4cccnc4)c3c2)c1` [Compound 8k] had a CC50 of 88.5 ± 1.41 µM.
On to `Cc1cncc(C#Cc2c[nH]c3ncc(-c4cccc(C(=O)NC5CC5)c4)cc23)c1` [Compound 9c], for which the CC50 was more than 100 µM.

Tested on in a further data set: not listed separately
Nature of the data set: in vitro. Conditions: human. The source holds these as a separate data set.
For the compound `COc1ccc(-c2cnc3[nH]cc(C#Cc4cccnc4)c3c2)cc1OC` [Compound 1], the CC50 at 4 days stood at 2 µM.
Still for that read-out and setting: next, `COc1cc(OC)cc(-c2cnc3[nH]cc(C#Cc4cccnc4)c3c2)c1` [Compound 4d]: more than 50 µM.
The same measure, in the same setting: next, `O=C(c1cccc(-c2cnc3[nH]cc(C#Cc4cccnc4)c3c2)c1)N1CCCC1` [Compound 8L]: 5.71 ± 0.044 µM; `CCNC(=O)c1ccc(-c2cnc3[nH]cc(C#Cc4cccnc4)c3c2)cc1` [Compound 8b]: 50 µM.
The same measure, in the same setting: next, `CNC(=O)c1cccc(-c2cnc3[nH]cc(C#Cc4cccnc4)c3c2)c1` [Compound 8e]: more than 50 µM; `O=C(NC1CC1)c1cccc(-c2cnc3[nH]cc(C#Cc4cccnc4)c3c2)c1` [Compound 8f]: more than 50 µM.
On to `CC(C)CNC(=O)c1cccc(-c2cnc3[nH]cc(C#Cc4cccnc4)c3c2)c1` [Compound 8g], for which the CC50 at 4 days was found to be 3.38 ± 1.01 µM.
With `COCCNC(=O)c1cccc(-c2cnc3[nH]cc(C#Cc4cccnc4)c3c2)c1` [Compound 8h], the CC50 at 4 days is 17.3 ± 7.88 µM.
In turn, `CCN(CC)C(=O)c1cccc(-c2cnc3[nH]cc(C#Cc4cccnc4)c3c2)c1` [Compound 8k] came in with a CC50 at 4 days of 4.04 ± 0.14 µM.
In the case of `Cc1cncc(C#Cc2c[nH]c3ncc(-c4cccc(C(=O)NC5CC5)c4)cc23)c1` [Compound 9c], the CC50 at 4 days was more than 50 µM.

The target of a further data set is AAK1 (Homo sapiens, UniProt Q2M2I8). Nature of the data set: LanthaScreen Eu Kinase Binding Assay for AAK1.
Chain of AAK1 (Q2M2I8 whole entry): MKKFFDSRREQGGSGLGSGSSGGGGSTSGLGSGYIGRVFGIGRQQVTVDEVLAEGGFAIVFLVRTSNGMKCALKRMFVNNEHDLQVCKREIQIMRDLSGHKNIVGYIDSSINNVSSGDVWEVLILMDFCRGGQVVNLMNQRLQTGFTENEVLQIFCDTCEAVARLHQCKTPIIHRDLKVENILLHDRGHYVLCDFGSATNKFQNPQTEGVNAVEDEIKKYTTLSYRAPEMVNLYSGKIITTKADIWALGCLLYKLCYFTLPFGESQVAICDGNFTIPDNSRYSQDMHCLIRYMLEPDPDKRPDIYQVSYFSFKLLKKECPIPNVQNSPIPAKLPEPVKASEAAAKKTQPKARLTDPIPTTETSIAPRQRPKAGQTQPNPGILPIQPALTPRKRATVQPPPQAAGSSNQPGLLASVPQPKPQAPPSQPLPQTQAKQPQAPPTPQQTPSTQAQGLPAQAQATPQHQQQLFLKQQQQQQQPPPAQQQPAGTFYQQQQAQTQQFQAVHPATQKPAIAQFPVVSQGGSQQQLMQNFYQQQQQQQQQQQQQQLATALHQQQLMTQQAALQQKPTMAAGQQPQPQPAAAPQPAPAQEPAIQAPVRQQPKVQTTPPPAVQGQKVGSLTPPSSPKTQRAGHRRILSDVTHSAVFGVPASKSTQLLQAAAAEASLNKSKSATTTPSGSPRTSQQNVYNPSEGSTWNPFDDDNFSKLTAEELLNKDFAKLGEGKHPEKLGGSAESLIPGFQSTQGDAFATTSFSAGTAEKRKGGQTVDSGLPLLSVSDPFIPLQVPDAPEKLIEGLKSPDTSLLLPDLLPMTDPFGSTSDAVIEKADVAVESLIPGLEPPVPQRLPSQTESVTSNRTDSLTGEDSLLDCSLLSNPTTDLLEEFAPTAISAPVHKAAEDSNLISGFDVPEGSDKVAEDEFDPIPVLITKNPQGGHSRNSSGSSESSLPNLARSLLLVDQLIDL
Settings: not given
Compound `COc1ccc(-c2cnc3[nH]cc(C#Cc4cccnc4)c3c2)cc1OC` [Compound 1] yielded a half-maximal inhibitory concentration (IC50) of 0.0042 µM.
On to `COc1cc(OC)cc(-c2cnc3[nH]cc(C#Cc4cccnc4)c3c2)c1` [Compound 4d], for which the “AAK1 affinity (in words)” value is “low nanomolar AAK1 affinity” and the IC50 turned out to be 0.0062 µM.
As to `CCNC(=O)c1ccc(-c2cnc3[nH]cc(C#Cc4cccnc4)c3c2)cc1` [Compound 8b], the “AAK1 affinity (in words)” value is “low nanomolar AAK1 affinity” and the IC50 came out at 0.004 µM.
For the compound `CNC(=O)c1cccc(-c2cnc3[nH]cc(C#Cc4cccnc4)c3c2)c1` [Compound 8e], the “AAK1 affinity (in words)” value was “low nanomolar AAK1 affinity” and the IC50 is 0.0035 µM.
In the case of `O=C(NC1CC1)c1cccc(-c2cnc3[nH]cc(C#Cc4cccnc4)c3c2)c1` [Compound 8f], the “AAK1 affinity (in words)” value was “low nanomolar AAK1 affinity” and the half-inhibitory concentration (IC50) was determined as 0.0054 µM.

The subject of a further data set is VEEV (TC-83). Nature of the data set: microbe, parasite or virus in culture. The class given is cell-based. The note with it: Venezuelan equine encephalitis virus, U-87 MG, 18 h, read-out: VEEV EC50.
As to `COc1ccc(-c2cnc3[nH]cc(C#Cc4cccnc4)c3c2)cc1OC` [Compound 1], the EC50 stood at 1.22 ± 0.22 µM.
For the compound `COc1cc(OC)cc(-c2cnc3[nH]cc(C#Cc4cccnc4)c3c2)c1` [Compound 4d], the EC50 was more than 10 µM.
`O=C(c1cccc(-c2cnc3[nH]cc(C#Cc4cccnc4)c3c2)c1)N1CCCC1` [Compound 8L]: the EC50 is more than 10 µM.
As to `CCNC(=O)c1ccc(-c2cnc3[nH]cc(C#Cc4cccnc4)c3c2)cc1` [Compound 8b], the 50% effective concentration (EC50) turned out to be 6.01 ± 1.81 µM.
As for `CNC(=O)c1cccc(-c2cnc3[nH]cc(C#Cc4cccnc4)c3c2)c1` [Compound 8e], the EC50 was more than 10 µM.
On to `O=C(NC1CC1)c1cccc(-c2cnc3[nH]cc(C#Cc4cccnc4)c3c2)c1` [Compound 8f], for which the EC50 was found to be 2.75 ± 1.22 µM.
`CC(C)CNC(=O)c1cccc(-c2cnc3[nH]cc(C#Cc4cccnc4)c3c2)c1` [Compound 8g]: the 50% effective concentration (EC50) is 3.75 ± 1.08 µM.
Take `COCCNC(=O)c1cccc(-c2cnc3[nH]cc(C#Cc4cccnc4)c3c2)c1` [Compound 8h]: the concentration for a half-maximal effect (EC50) came out at 2.48 ± 1.27 µM.
Regarding `CCN(CC)C(=O)c1cccc(-c2cnc3[nH]cc(C#Cc4cccnc4)c3c2)c1` [Compound 8k], the concentration giving a half-maximal response (EC50) is more than 10 µM.
`Cc1cncc(C#Cc2c[nH]c3ncc(-c4cccc(C(=O)NC5CC5)c4)cc23)c1` [Compound 9c]: the concentration for a half-maximal effect (EC50) was determined as 1.8 ± 0.32 µM.

A further data set deals with RSV-A. As to the kind of experiment: Anti-RSV-A activity in A549 cells, viral RNA in supernatant by RT-qPCR. The class given is cell-based, RSV-A strain Long. The note with it: human respiratory syncytial virus, 120 h; A549 cells, RT-qPCR of culture supernatant, MOI 0.1, 5 days; read-out: RSV-A EC50 (A549, viral RNA levels). (In general: In qPCR the cycle at which signal appears reflects the starting amount.)
In the case of `CCNC(=O)c1ccc(-c2cnc3[nH]cc(C#Cc4cccnc4)c3c2)cc1` [Compound 8b], the EC50 turned out to be 0.01 µM.
Take `CNC(=O)c1cccc(-c2cnc3[nH]cc(C#Cc4cccnc4)c3c2)c1` [Compound 8e]: the 50% effective concentration (EC50) is 0.2 µM.
On to `O=C(NC1CC1)c1cccc(-c2cnc3[nH]cc(C#Cc4cccnc4)c3c2)c1` [Compound 8f], for which the EC50 was 0.59 µM.

The same data set, now with this note: human respiratory syncytial virus, A549, 120 h, read-out: RSV-A EC50 (A549, viral RNA levels).
For `COc1cc(OC)cc(-c2cnc3[nH]cc(C#Cc4cccnc4)c3c2)c1` [Compound 4d], the half-maximal effective concentration (EC50) was 0.05 µM.

The test system of another data set is RSV-A. As to the kind of experiment: RSV-A cytopathic effect (CPE) reduction assay in HEp-2 cells, MTS read-out. In kind it is cell-based, human respiratory syncytial virus, RSV-A strain Long. The note with it: CC50 HEp-2 / EC50 RSV-A.
For `COc1ccc(-c2cnc3[nH]cc(C#Cc4cccnc4)c3c2)cc1OC` [Compound 1], the “selectivity index (SI)” value was 10.5.
Consider `COc1cc(OC)cc(-c2cnc3[nH]cc(C#Cc4cccnc4)c3c2)c1` [Compound 4d], for which the “selectivity index (SI)” value was determined as 90.

The same data set, now with this note: human respiratory syncytial virus, HEp-2, 96 h, read-out: RSV-A EC50.
On to `COc1ccc(-c2cnc3[nH]cc(C#Cc4cccnc4)c3c2)cc1OC` [Compound 1], for which the EC50 worked out at 0.19 ± 0.13 µM.
With `COc1cc(OC)cc(-c2cnc3[nH]cc(C#Cc4cccnc4)c3c2)c1` [Compound 4d], the concentration for a half-maximal effect (EC50) turned out to be 0.55 ± 0.41 µM.

The same data set, now with this note: human respiratory syncytial virus, HEp-2, 96 h; read-out: RSV-A EC50.
With `O=C(c1cccc(-c2cnc3[nH]cc(C#Cc4cccnc4)c3c2)c1)N1CCCC1` [Compound 8L], the EC50 amounted to 1 ± 0.94 µM.
As for `CCNC(=O)c1ccc(-c2cnc3[nH]cc(C#Cc4cccnc4)c3c2)cc1` [Compound 8b], the concentration giving a half-maximal response (EC50) came to 0.3 ± 0.28 µM.
On to `CNC(=O)c1cccc(-c2cnc3[nH]cc(C#Cc4cccnc4)c3c2)c1` [Compound 8e], for which the concentration for a half-maximal effect (EC50) was determined as 0.29 ± 0.32 µM.
In the case of `O=C(NC1CC1)c1cccc(-c2cnc3[nH]cc(C#Cc4cccnc4)c3c2)c1` [Compound 8f], the half-maximal effective concentration (EC50) was 0.16 ± 0.025 µM.
In the case of `CC(C)CNC(=O)c1cccc(-c2cnc3[nH]cc(C#Cc4cccnc4)c3c2)c1` [Compound 8g], the EC50 is 0.66 ± 0.22 µM.
Turning to `COCCNC(=O)c1cccc(-c2cnc3[nH]cc(C#Cc4cccnc4)c3c2)c1` [Compound 8h], the EC50 turned out to be 0.72 ± 0.46 µM.
For `CCN(CC)C(=O)c1cccc(-c2cnc3[nH]cc(C#Cc4cccnc4)c3c2)c1` [Compound 8k], the EC50 amounted to 0.97 ± 0.18 µM.
Consider `Cc1cncc(C#Cc2c[nH]c3ncc(-c4cccc(C(=O)NC5CC5)c4)cc23)c1` [Compound 9c], for which the 50% effective concentration (EC50) was determined as 0.18 ± 0.085 µM.

The test system of another data set is VEEV (TC-83).
Experiment: not given
The note with it: U-87 MG cells; recently reported; ref Pu et al., 2020; cited from earlier work.
`COc1cc(O)c2c(c1)/C=C/C[C@H](O)[C@H](O)C(=O)/C=C\C[C@H](C)OC2=O` [5Z-7-Oxozeanol]: the EC50 is 2.66 ± 0.13 µM.
